The record followed here is patent US10383880B2 (Reset Therapeutics, Inc., priority 2012, dated 2019).

SMILES strings stand for the structures.

In the first test the test system is Per2-dLuc U2OS reporter cells. Description: Per2 assay for evaluating the potency of test compounds (high-throughput circadian assay). Particulars: Homo sapiens, U2OS, stable U2OS reporter cells harboring Per2-dLuc; luminescence monitored over 4-5 days at 35° C. The format is cell-based. A digest of the protocol: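 Compounds (0.5% DMSO final) were added right after serum-shock synchronization of Per2-dLuc U2OS reporter cells in minimal medium containing 1.0 mM beetle luciferin. Reporter luminescence was followed at 35 °C for 4–5 days to extract rhythm period, amplitude and phase, and EC50 values were obtained from these.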
The term EC50 denotes the concentration giving half of the maximal effect. Read a high EC50 as a less potent agent. Molecule `O=S1(=O)CCCN1CC(O)Cn1c2ccc(F)cc2c2cc(F)ccc21` (centres unmarked) [Compound 87, N-(3-(3,6-Difluoro-9H-carbazol-9-yl)-2-hydroxypropyl)-isothiazolidine-1,1-dioxide] returned an EC50 of 0.02 µM.

In the case of `CS(=O)(=O)N(CC(O)Cn1c2ccccc2c2ccccc21)C1CCCc2ccccc21` (centres unmarked) [Compound 47, N-(3-(9H-Carbazol-9-yl)-2-hydroxypropyl)-N-(1,2,3,4-tetrahydronaphthalen-1-yl)methanesulfonamide], the EC50 turned out to be 3.35 µM.

`CS(=O)(=O)CCN(CC(O)Cn1c2ccccc2c2ccccc21)S(C)(=O)=O` (centres unmarked) [Compound 55, N-(3-(9H-Carbazol-9-yl)-2-hydroxypropyl)-N-(2-(methylsulfonyl)ethyl)methanesulfonamide] yielded an EC50 of 2.31 µM. The EC50 values of the last two molecules are within 1.5-fold of each other.

For the molecule `CN(CC(O)Cn1c2ccc(F)cc2c2c(F)cccc21)S(C)(=O)=O` (centres unmarked) [Compound 110, N-(3-(3,5-Difluoro-9H-carbazol-9-yl)-2-hydroxypropyl)-N-methylmethanesulfonamide], the EC50 stood at 3.63 µM. This EC50 is about 1.6-fold higher than that of the molecule before.

The molecule `CN(CC(O)Cn1c2cc(F)ccc2c2c(F)cccc21)S(C)(=O)=O` (centres unmarked) [Compound 98, N-(3-(2,5-Difluoro-9H-carbazol-9-yl)-2-hydroxypropyl)-N-methylmethanesulfonamide] showed an EC50 of 8.1 µM.

In turn, `CS(=O)(=O)N(CC(O)Cn1c2ccc(F)cc2c2cc(F)ccc21)c1ccc(-n2cccn2)cc1` (centres unmarked) [Compound 213, N-(4-(1H-Pyrazol-1-yl)phenyl)-N-(3-(3,6-difluoro-9H-carbazol-9-yl)-2-hydroxypropyl)methanesulfonamide] displayed an EC50 of 2.95 µM. Against the preceding molecule, the EC50 is about 2.7-fold lower.

For `CC(C)CS(=O)(=O)N(Cc1ccco1)CC(O)Cn1c2ccccc2c2ccccc21` (centres unmarked) [Compound 13, N-(3-(9H-Carbazol-9-yl)-2-hydroxypropyl)-N-(furan-2-ylmethyl)-2-methylpropane-1-sulfonamide], the EC50 was found to be 0.454 µM.

As for `O=S1(=O)CCCN1CC(O)Cn1c2ccc(F)cc2c2ccc(F)cc21` (centres unmarked) [Compound 101, N-(3-(2,6-Difluoro-9H-carbazol-9-yl)-2-hydroxypropyl)-isothiazolidine-1,1-dioxide], the EC50 came to 0.05 µM.

As to `CC1(N(CC(O)Cn2c3ccccc3c3ccccc32)S(C)(=O)=O)CCC1` (centres unmarked) [Compound 138, N-(3-(9H-Carbazol-9-yl)-2-hydroxypropyl)-N-(1-methylcyclobutyl)methanesulfonamide], the EC50 was 0.041 µM.

Turning to `CS(=O)(=O)N(CC(O)Cn1c2ccccc2c2ccccc21)C1(C#N)CC1` (centres unmarked) [Compound 125, N-(3-(9H-Carbazol-9-yl)-2-hydroxypropyl)-N-(1-cyanocyclopropyl)methanesulfonamide], it took 2.61 µM to reach a half-maximal effect (EC50).

On to `CCN(CC(O)Cn1c2ccc(F)cc2c2cc(F)ccc21)S(C)(=O)=O` (centres unmarked) [Compound 156, N-(3-(3,6-ifluoro-9H-carbazol-9-yl)-2-hydroxypropyl)-N-ethylmethanesulfonamide], for which the EC50 amounted to 0.471 µM.

Consider `CS(=O)(=O)N(CC(O)Cn1c2ccc(F)cc2c2cc(F)ccc21)C1CC1` (centres unmarked) [Compound 118, N-Cyclopropyl-N-(3-(3,6-difluoro-9H-carbazol-9-yl)-2-hydroxypropyl)methanesulfonamide], for which the EC50 came out at 0.081 µM. This EC50 lies about 5.8-fold lower than the previous one.

Regarding `CC(O)(CN(C1(C)CCC1)S(C)(=O)=O)Cn1c2ccc(F)cc2c2cc(F)ccc21` (centres unmarked) [Compound 187, N-(3-(3,6-Difluoro-9H-carbazol-9-yl)-2-hydroxy-2-methylpropyl)-N-(1-methylcyclobutyl)methanesulfonamide], it took 2.75 µM to reach a half-maximal effect (EC50).

Turning to `O=S1(=O)N(CC(O)Cn2c3ccc(F)cc3c3cc(F)ccc32)CCC1(F)F` (centres unmarked) [Compound 185, 2-(3-(3,6-Difluoro-9H-carbazol-9-yl)-2-hydroxypropyl)-5,5-difluoroisothiazolidine-1,1-dioxide], a half-maximal response (EC50) required 0.045 µM.

As for `O=S1(=O)CCCCN1C[C@H](O)Cn1c2ccccc2c2ccccc21` [Compound 41, (R)-N-(3-(9H-Carbazol-9-yl)-2-hydroxypropyl)-1,2-thiazinane 1,1-dioxide], the EC50 came to 0.343 µM.

The molecule `CS(=O)(=O)N(CC(O)Cn1c2ccccc2c2ccccc21)C1(C(F)(F)F)CCC1` (centres unmarked) [Compound 146, N-(3-(9H-Carbazol-9-yl)-2-hydroxypropyl)-N-(1-(trifluoromethyl)cyclobutyl)methanesulfonamide] had an EC50 of 1.16 µM.

`O=S(=O)(CCCF)N(Cc1ccco1)CC(O)Cn1c2ccccc2c2ccccc21` (centres unmarked) [Compound 10, N-(3-(9H-Carbazol-9-yl)-2-hydroxypropyl)-3-fluoro-N-(furan-2-ylmethyl)propane-1-sulfonamide] came in with an EC50 of 1.13 µM.

Take `CS(=O)(=O)N(CCc1ccccc1)CC(O)Cn1c2ccccc2c2ccccc21` (centres unmarked) [Compound 54, N-(3-(9H-Carbazol-9-yl)-2-hydroxypropyl)-N-phenethylmethanesulfonamide]: the EC50 came to 0.824 µM. The EC50 values of the last two molecules are within 1.5-fold of each other.

Molecule `CS(=O)(=O)N(CC(O)Cn1c2ccccc2c2ccccc21)C1(C(F)(F)F)CC1` (centres unmarked) [Compound 145, N-(3-(9H-Carbazol-9-yl)-2-hydroxypropyl)-N-(1-(trifluoromethyl)cyclopropyl)methanesulfonamide] had an EC50 of 1.35 µM.

Molecule `CS(=O)(=O)NCC(O)Cn1c2ccc(F)cc2c2cc(F)ccc21` (centres unmarked) [Compound 154, N-(3-(3,6-Difluoro-9H-carbazol-9-yl)-2-hydroxypropyl)methanesulfonamide] displayed an EC50 of 0.68 µM. Against the preceding molecule, the EC50 is about 2-fold lower.

Consider `COCCN(CC(O)Cn1c2ccc(F)cc2c2ccc(F)cc21)S(C)(=O)=O` (centres unmarked) [Compound 104, N-(3-(2,6-Difluoro-9H-carbazol-9-yl)-2-hydroxypropyl)-N-(2-methoxyethyl)methanesulfonamide], for which a half-maximal effect (EC50) was put at 3.5 µM.

For `CC(C)(C(O)Cn1c2ccc(F)cc2c2cc(F)ccc21)N1CCCS1(=O)=O` (centres unmarked) [Compound 244, 2-(4-(3,6-Difluoro-9H-carbazol-9-yl)-3-hydroxy-2-methylbutan-2-yl)isothiazolidine-1,1-dioxide], the EC50 is 0.057 µM.

In the case of `CC(=O)Nc1ccc(N(CC(O)Cn2c3ccccc3c3ccccc32)S(C)(=O)=O)cc1` (centres unmarked) [Compound 29, N-(4-(N-(3-(9H-Carbazol-9-yl)-2-hydroxypropyl)methylsulfonamido)phenyl)acetamide], a half-maximal effect (EC50) was put at 0.71 µM.

`CS(=O)(=O)N(CC(O)Cn1c2ccc(F)cc2c2cc(F)ccc21)C1CCC1` (centres unmarked) [Compound 119, N-Cyclobutyl-N-(3-(3,6-difluoro-9H-carbazol-9-yl)-2-hydroxypropyl)methanesulfonamide] had an EC50 of 0.037 µM.

Molecule `O=S1(=O)c2ccccc2CCN1CC(O)Cn1c2ccccc2c2ccccc21` (centres unmarked) [Compound 43, N-(3-(9H-Carbazol-9-yl)-2-hydroxypropyl)-3,4-dihydro-2H-benzo[e][1,2]thiazine 1,1-dioxide] yielded an EC50 of 3 µM.

In turn, `CC(C)N(CC(O)Cn1c2ccc(F)cc2c2cc(F)ccc21)S(C)(=O)=O` (centres unmarked) [Compound 117, N-(3-(3,6-Difluoro-9H-carbazol-9-yl)-2-hydroxypropyl)-N-isopropylmethanesulfonamide] yielded an EC50 of 0.127 µM.

`CC1(N(CC(O)Cn2c3ccc(F)cc3c3cc(F)ccc32)S(C)(=O)=O)CC1` (centres unmarked) [Compound 188, N-(3-(3,6-Difluoro-9H-carbazol-9-yl)-2-hydroxypropyl)-N-(1-methylcyclopropyl)methanesulfonamide] had a concentration giving a half-maximal response (EC50) of 0.147 µM.

`CC(O)(CN1CCNS1(=O)=O)Cn1c2ccc(F)cc2c2cc(F)ccc21` (centres unmarked) [Compound 176] came in with an EC50 of 0.125 µM. This EC50 and that of the molecule before are within 1.5-fold of each other.

The molecule `CS(=O)(=O)N(Cc1ccco1)CC(O)Cn1c2ccccc2c2ccccc21` (centres unmarked) [Compound 1, N-(3-(9H-Carbazol-9-yl)-2-hydroxypropyl)-N-(furan-2-ylmethyl)methanesulfonamide] had an EC50 of 0.34 µM.

Consider `O=S1(=O)CCCCN1CC(O)Cn1c2cccc(F)c2c2c(F)cccc21` (centres unmarked) [Compound 105, N-(3-(4,5-Difluoro-9H-carbazol-9-yl)-2-hydroxypropyl)-1,2-thiazinane 1,1-dioxide], for which the EC50 was found to be 5.2 µM.

The molecule `COc1ccc(N(CC(O)Cn2c3ccccc3c3ccccc32)S(C)(=O)=O)cc1` (centres unmarked) [Compound 21, N-(3-(9H-Carbazol-9-yl)-2-hydroxypropyl)-N-(4-methoxyphenyl)methanesulfonamide] yielded an EC50 of 0.44 µM.

In the case of `CS(=O)(=O)N(CC(O)Cn1c2ccc(F)cc2c2ccc(F)cc21)C1CCC1` (centres unmarked) [Compound 166, N-Cyclobutyl-N-(3-(2,6-difluoro-9H-carbazol-9-yl)-2-hydroxypropyl)methanesulfonamide], it took 0.147 µM to reach a half-maximal effect (EC50).

Molecule `CC(O)(CN1CCC(C)(C)S1(=O)=O)Cn1c2ccc(F)cc2c2cc(F)ccc21` (centres unmarked) [Compound 180, 2-(3-(3,6-Difluoro-9H-carbazol-9-yl)-2-hydroxy-2-methylpropyl)-5,5-dimethylisothiazolidine-1,1-dioxide] gave an EC50 of 1.65 µM.

`CS(=O)(=O)N(CC(O)Cn1c2ccccc2c2ccccc21)c1ccon1` (centres unmarked) [Compound 81, N-(3-(9H-Carbazol-9-yl)-2-hydroxypropyl)-N-(isoxazol-3-yl)methanesulfonamide] displayed an EC50 of 0.964 µM.

Molecule `CN1CCN(CC(O)Cn2c3ccc(F)cc3c3cc(F)ccc32)S1(=O)=O` (centres unmarked) [Compound 173] showed an EC50 of 0.086 µM.

`CC1CCCC1N(CC(C)(O)Cn1c2ccc(F)cc2c2cc(F)ccc21)S(C)(=O)=O` (centres unmarked) [Compound 192, N-(3-(3,6-Difluoro-9H-carbazol-9-yl)-2-hydroxy-2-methylpropyl)-N-(2-methylcyclopentyl)methanesulfonamide] gave an EC50 of 0.686 µM. This EC50 is about 8-fold higher than that of the molecule before.

As to `CC(O)(CN1CCN(C2CCC2)S1(=O)=O)Cn1c2ccc(F)cc2c2cc(F)ccc21` (centres unmarked) [Compound 235], a half-maximal response (EC50) required 6.46 µM.

The same test, now with this note: stable U2OS reporter cells harboring Per2-dLuc; luminescence monitored over 4-5 days at 35° C.
In turn, `CC1CCCC1N(CC(O)Cn1c2ccc(F)cc2c2cc(F)ccc21)S(C)(=O)=O` (single isomer, unassigned) [Compound 193C, N-(3-(3,6-Difluoro-9H-carbazol-9-yl)-2-hydroxypropyl)-N-(2-methylcyclopentyl)methanesulfonamide] showed an EC50 of 4.47 µM.
